Tests used:
Assay type in all cases: in vivo
[1] = system: barnyardgrass (Echinochloa crus-galli); test: Test A greenhouse herbicide test, pre- and postemergence
How it was run: (§1)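 Visual injury ratings, 0 (no effect) to 100 (complete control), versus untreated plants after roughly 10 d in a greenhouse. Compounds, formulated in a surfactant-containing non-phytotoxic solvent, were sprayed on loam–sand soil after sowing (pre) or on one- to two-leaf plants 2–10 cm tall (post).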

[2] = system: corn (Zea mays); test: as above; conditions: Postemergence; for Plant response rating, Corn: 125 g ai/ha; for Corn plant response rating: 500 g ai/ha, 0 to 100 scale, 0 is no effect, 100 is complete control
How it was run: as §1

[3] = system: foxtail, giant (giant foxtail, Setaria faberii); test: as above
How it was run: as §1

[4] = system: kochia (Kochia scoparia); test: as above
How it was run: as §1

[5] = system: pigweed (Amaranthus retroflexus); test: as above
How it was run: as §1

[6] = system: ragweed (common ragweed, Ambrosia elatior); test: as above
How it was run: as §1

[7] = system: ryegrass, Italian (Italian ryegrass, Lolium multiflorum); test: as above
How it was run: as §1

[8] = system: wheat (Triticum aestivum); test: as above; conditions: Postemergence; for Plant response rating, Wheat: 125 g ai/ha, 0 to 100 scale where 0 is no effect and 100 is complete control; for Wheat plant response rating: 500 g ai/ha, 0 to 100 scale, 0 is no effect, 100 is complete control
How it was run: as §1

[9] = system: blackgrass (Alopecurus myosuroides); test: Test A greenhouse herbicide test, postemergence; conditions: for Plant response rating, Blackgrass: 125 g ai/ha; for Blackgrass plant response rating: 500 g ai/ha, 0 to 100 scale, 0 is no effect, 100 is complete control
How it was run: (§2)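 Scores are visual injury ratings from 0 (no effect) to 100 (complete control) versus untreated plants, taken roughly 10 d after treatment in the greenhouse. Treatment was postemergence, on one- to two-leaf plants 2–10 cm high growing in a loam soil/sand mix.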

[10] = system: galium (catchweed bedstraw, Galium aparine); test: Test A greenhouse herbicide test, postemergence; conditions: for Plant response rating, Galium: 125 g ai/ha; for Galium plant response rating: 500 g ai/ha, 0 to 100 scale, 0 is no effect, 100 is complete control
How it was run: as §2

[11] = system: kochia (Kochia scoparia); test: Test C greenhouse herbicide test, postemergence
How it was run: (§3)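 Seedlings are raised in pots of peat moss–vermiculite medium with starter nutrients, then receive postemergence test chemical at the 1- to 4-leaf stage. They are kept in the greenhouse 13 to 15 d and scored visually versus controls, 0 meaning no effect and 100 complete control.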

[12] = system: oat, wild (wild oat, Avena fatua); test: Test C greenhouse herbicide test, postemergence
How it was run: as §3

[13] = Postemergence, 125 g ai/ha, visual rating after approx. 10 d, 0 to 100 scale (0 no effect, 100 complete control)
[14] = Postemergence, 500 g ai/ha, 0 to 100 scale, 0 is no effect, 100 is complete control
[15] = Preemergence, 125 g ai/ha, 0 to 100 scale where 0 is no effect and 100 is complete control
[16] = Preemergence, 500 g ai/ha, 0 to 100 scale, 0 no effect, 100 complete control
[17] = visual rating after approx. 10 d, 0 to 100 scale (0 no effect, 100 complete control)
[18] = Postemergence, 125 g ai/ha, 0 to 100 scale where 0 is no effect and 100 is complete control
[19] = Postemergence, 31 g ai/ha, 0 to 100 scale (0 no effect, 100 complete control)
[20] = Postemergence, 125 g ai/ha, scale 0 to 100, 0 is no effect, 100 is complete control
[21] = Postemergence, 250 g ai/ha, scale 0 to 100, 0 no effect, 100 complete control, 13 to 15 d
[22] = postemergence, 62 g ai/ha, scale 0 to 100, 0 no effect, 100 complete control
[23] = 0 to 100 scale where 0 is no effect and 100 is complete control
[24] = Preemergence, 500 g ai/ha, 0 to 100 scale where 0 is no effect and 100 is complete control

SMILES	Barnyardgrass plant response rating [1, 14]	Barnyardgrass plant response rating [1, 15]	Corn plant response rating [2]	Foxtail, Giant plant response rating [3, 14]	Foxtail, Giant plant response rating [3, 15]	Kochia plant response rating [4, 14]	Kochia plant response rating [4, 15]	Pigweed plant response rating [5, 14]	Pigweed plant response rating [5, 15]	Ragweed plant response rating [6, 14]	Ragweed plant response rating [6, 15]	Plant response rating, Ryegrass, Italian [7, 18]	Ryegrass, Italian plant response rating [7, 14]	Ryegrass, Italian plant response rating [7, 15]	Plant response rating, Wheat [8]	Wheat plant response rating [8]	Blackgrass plant response rating [9]	Galium plant response rating [10]	Plant response rating, Kochia [11, 20]	Plant response rating, Kochia [11, 21]	other results
CC(=O)Oc1c(C)nn(C)c(=O)c1-c1c(C)sc2c(C)cc(C)cc12 [Compound 27]	90	90	20	90	90	90	40	100	100	100	90	100	100	100	0	0	90	100	90	90	Plant response rating, Barnyardgrass [1, 13]: 90; Plant response rating, Barnyardgrass [1, 16]: 100; Plant response rating, Corn [2, 17]: 0; Plant response rating, Foxtail, Giant [3, 13]: 90; Plant response rating, Foxtail, Giant [3, 16]: 100; Plant response rating, Kochia [4, 13]: 70; Plant response rating, Kochia [4, 16]: 90; Plant response rating, Pigweed [5, 13]: 90; Plant response rating, Pigweed [5, 16]: 100; Plant response rating, Ragweed [6, 13]: 100; Plant response rating, Ragweed [6, 16]: 100; Plant response rating, Ryegrass, Italian [7, 16]: 100; Plant response rating, Blackgrass [9, 17]: 90; Plant response rating, Galium [10, 17]: 100; Kochia plant response rating [11, 19]: 75; Kochia plant response rating [11, 22]: 80; Oat, Wild plant response rating [12, 19]: 85; Plant response rating, Oat, Wild [12, 20]: 95; Plant response rating, Oat, Wild [12, 21]: 100; Oat, Wild plant response rating [12, 22]: 95
CCOC(=O)Oc1c(C)nn(C)c(=O)c1-c1c(C)ccc2ccccc12 [Compound 73]	90	40	60	100	90	100	50	100	100	100	90	100	100	100	40	90	90	100	90	100	Plant response rating, Barnyardgrass [1, 18]: 40; Plant response rating, Barnyardgrass [1, 16]: 100; Plant response rating, Corn [2, 23]: 20; Plant response rating, Foxtail, Giant [3, 18]: 90; Plant response rating, Foxtail, Giant [3, 24]: 100; Plant response rating, Kochia [4, 18]: 90; Plant response rating, Kochia [4, 24]: 100; Plant response rating, Pigweed [5, 18]: 100; Plant response rating, Pigweed [5, 24]: 100; Plant response rating, Ragweed [6, 18]: 90; Plant response rating, Ragweed [6, 24]: 90; Plant response rating, Ryegrass, Italian [7, 24]: 100; Plant response rating, Blackgrass [9, 23]: 90; Plant response rating, Galium [10, 23]: 100; Kochia plant response rating [11, 19]: 90; Kochia plant response rating [11, 22]: 90; Oat, Wild plant response rating [12, 19]: 75; Plant response rating, Oat, Wild [12, 20]: 95; Plant response rating, Oat, Wild [12, 21]: 95; Oat, Wild plant response rating [12, 22]: 90
CCOC(=O)Oc1c(C)nn(C)c(=O)c1-c1c(C)sc2c(C)cc(C)cc12 [Compound 83]	90	70	0	100	100	100	30	100	100	100	90	90	100	100	0	20	100	100	65	80	Plant response rating, Barnyardgrass [1, 18]: 40; Plant response rating, Barnyardgrass [1, 24]: 100; Plant response rating, Corn [2, 23]: 0; Plant response rating, Foxtail, Giant [3, 18]: 90; Plant response rating, Foxtail, Giant [3, 24]: 100; Plant response rating, Kochia [4, 18]: 70; Plant response rating, Kochia [4, 24]: 100; Plant response rating, Pigweed [5, 18]: 100; Plant response rating, Pigweed [5, 24]: 100; Plant response rating, Ragweed [6, 18]: 90; Plant response rating, Ragweed [6, 24]: 100; Plant response rating, Ryegrass, Italian [7, 24]: 100; Plant response rating, Blackgrass [9, 23]: 90; Plant response rating, Galium [10, 23]: 100; Kochia plant response rating [11, 22]: 60; Plant response rating, Oat, Wild [12, 20]: 90; Plant response rating, Oat, Wild [12, 21]: 95; Oat, Wild plant response rating [12, 22]: 90

From patent US10597388B2, “Pyridazinone herbicides” (FMC CORPORATION, priority 2014, dated 2020)
